According to a melting point compilation (Tetko et al.; mined from patent text by program, amines drawn as free bases though some values may be those of a salt):

SMILES | melting point
CS(=O)(=O)c1ccc(C[C@@H](NC(=O)OCc2ccccc2)[C@H](O)C(N)=O)cc1 | 186 to 191 °C
O=C(Nc1ccc(N2CCC(NC[C@H](O)COc3cccc4[nH]c5ccccc5c34)CC2)cc1)c1ccc2c(c1)OCO2 | 217 to 223 °C
CNC(=O)c1ccsc1Nc1nc(Nc2ccc3c(c2)CCN(CCOC)CC3)ncc1Cl | 217 to 221 °C
CCOC1=NC(N)=C(C(=O)OC)C(c2cccc([N+](=O)[O-])c2)C1C(=O)OC (centres undefined) | 163 °C
CS(=O)(=O)Nc1ccc([N+](=O)[O-])cc1OC1CCCCC1 | 136 to 137 °C
CS(=O)(=O)c1ccc(-n2nc(CNC(=O)Nc3ccccc3)cc2-c2ccccc2)cc1 | 95.7 to 104 °C
Brc1csc2ncnc(NCc3ccccn3)c12 | 127 to 129 °C
Cn1nc(-c2c(F)cccc2Cl)nc1-c1cc(-c2ccc(OC(F)(F)F)cc2)sc1Br | 135 to 136 °C
CCCc1nc(C)cn1-c1nc(OC)ccc1N | 124 to 128 °C
O=S(=O)(Nc1cccc(OCCc2ccc3ccccc3c2)c1)c1cccc2ccccc12 | 165 to 167 °C
COc1cccc(Oc2c(NS(=O)(=O)c3ccc(C(C)(C)C)cc3)ncnc2OCCOc2ncc(-c3ccccc3)cn2)c1 | 160 to 161 °C
O=C(Nc1ccc(C(=O)N2Cc3ccccc3Cc3cc(Cl)ccc32)cc1)c1ccc(Cl)cc1Cl | 199 to 201 °C
CC(C)NC(=O)OCC(=O)c1ccccc1 | 108 to 110 °C
CCOC(=O)/C=C/c1cccc(Br)c1 | 26 to 28 °C
Nc1cc(=O)n(Cc2ccc(F)cc2Cl)[nH]1 | 192 °C
CCOCc1nc2cnc3ccccc3c2n1CCC(C)C | 64 to 65 °C
Cc1ccc(C2(c3ccc(C)cc3)CCN=C2NC(=O)c2cc(C)n[nH]2)cc1 | 243 to 245 °C
CC(c1ccc2ncccc2c1)n1nnc2ccc(-c3cnn(CCO)c3)nc21 (centres undefined) | 188 to 191 °C
CC(C)(Nc1ccccc1N)C(=O)O | 130 to 132 °C
N#Cc1cc(-c2nccs2)nn1-c1ccc(NC(=O)c2ccncc2F)cc1 | 210 to 211 °C
CCc1nc2c(NC(=O)C(C)(C)C)nc3ccccc3c2n1CCCCNS(C)(=O)=O | 220 to 221 °C
CN(Cc1ccc2cc(NS(C)(=O)=O)ccc2n1)C1Cc2ccc(NS(C)(=O)=O)cc2C1 (centres undefined) | 189 to 191 °C
COc1nc(Br)c(C)nc1NS(=O)(=O)c1cccc(Cl)c1Cl | 146 to 148 °C
CCCN(CCC)C1COc2cccc(C(=O)C(C)C)c2C1 (centres undefined) | 60 to 62 °C
COc1ccc(F)cc1C(C)(C)c1cc(Cl)ccc1O | 97 °C

SMILES | melting point
CC(C)(C)c1nc(C=NO)nc(C(C)(C)C)c1O | 205 to 220 °C
Nc1ccc(Nc2c(NCc3ccco3)cc(C(=O)O)cc2S(N)(=O)=O)cc1 | 232 °C
CC(C)(C)OC(=O)NC1CCCCCC=CC2CC2(C(=O)NS(=O)(=O)C2CC2)NC(=O)C2CC(OC(=O)c3ccccn3)CN2C1=O (centres undefined) | 164 to 166 °C
COC(=O)c1ccccc1-c1cc(-c2ccc(Cl)cc2Cl)no1 | 94 to 96 °C
OCCOc1csc2ccccc12 | 55 to 56 °C
COc1cc(OC)c(C(O)C(Cl)(Cl)Cl)cc1OC (centres undefined) | 162 to 164 °C
COc1cc(N)c(Cl)cc1C(=O)NCC1CCN(CCCCC(=O)c2ccc(O)cc2)CC1 | 154 to 156 °C
COc1nn(-c2cccc(NC(C)=O)c2)c(=O)n(Cc2ccc3c(c2)OC(F)(F)O3)c1=O | 184 °C
O=S1(=O)c2ccc(O)cc2Oc2cc(F)ccc21 | 258 to 260 °C
CCCCC1OC(=O)c2cc(NC(=O)OCC)ccc21 (centres undefined) | 125 to 126 °C
Nc1ccc(-c2cc(=O)cc(N3CCOCC3)o2)cc1 | 258 to 260 °C
CC(C)C[C@@H](COCC(N)=O)NC(=O)OCc1ccccc1 | 78 to 79 °C
CCCc1ccc(S(=O)(=O)Nc2ccc3ncccc3c2)cc1 | 180 to 181 °C
CSc1nccn1-c1cccc(C2=Nc3cc(O)c(-c4ccccc4F)cc3NC(=O)C2)c1 | > 250 °C
CCCNC(=O)c1ccc2c(c1)N(C(C)CN(C)CC)c1ccccc1S2 (racemic) | 100 °C
CC(C(=O)c1ccc(F)cc1)N1CCC(O)(Cc2ccccc2)CC1 (centres undefined) | 120 °C
COc1ccc([N+](=O)[O-])c(NC(=O)OC(C)(C)C)c1 | 112 to 114 °C
Cn1nc(C#N)c(Nc2ccc(C(F)(F)F)cc2[N+](=O)[O-])n1 | 116 to 117 °C
Oc1ccc(Nc2nccc(-c3cccnc3)n2)cc1 | 223 to 225 °C
Clc1cccnc1-c1ccc2[nH]nc(Nc3ncc(CN4CCOCC4)s3)c2c1 | 217 °C
CCOc1ccc(C2C(=O)Oc3c2cc(C(C)(C)C)cc3C(C)(C)C)cc1 (centres undefined) | 132 to 134 °C
CC1=C(C(=O)O)C(c2ccccc2[N+](=O)[O-])C(C(=O)O)=C(C)N1 | 120 to 122 °C
CCOCc1nc2c(N)nc3ccccc3c2n1CCNC(=O)OC(C)(C)C | 201 to 202 °C
C[C@@H]1Cc2ccsc2[C@H](C)N1CCCNC(=O)c1ccc(NS(C)(=O)=O)cc1 (relative stereo) | 148 to 150 °C
CC#CCOc1cc(C=O)ccc1OC(F)F | 46 to 47 °C

SMILES | melting point
Cc1cncc(-c2nc3cc(NC(=O)c4c(C(=O)N5CCC5)cnn4C)ccn3n2)c1 | 262 to 264 °C
Cc1cccc(C)c1C1C(=O)CC(C)(C)CC1=O | 177 to 186 °C
Oc1ccc(-c2nc(-c3ccccc3)nc3ccccc23)c(O)c1 | 178 to 180 °C
COc1ccc(Br)c(C=O)c1OC | 92 to 93 °C
COc1cc([C@@H](O)[C@@H](C)N2CCC(O)(c3ccccc3)CC2)ccc1OCc1ccccc1 (relative stereo) | 131 to 132 °C
CCc1nc2cc(/C=C/C(=O)NO)c(F)cc2c(=O)n1CCc1ccccc1 | 219 to 221 °C
O=C1CCC2=C(CCc3cc(Cl)cc(Cl)c32)N1 | 212 to 214 °C
Fc1ccc(C(Cl)(c2ccccc2)c2ccccc2)cc1 | 88 °C
Fc1ccc(N2CCC(NCc3ccn4c(CC5CC5)nnc4c3C(F)(F)F)CC2)c(F)c1 | 118 °C
O=C(Oc1ccccc1)C(=C1NCCCS1)[N+](=O)[O-] | 100 to 102 °C
CNC1CCN(c2nc3c(cc2F)c(=O)c(C(=O)O)cn3CCF)C1 (centres undefined) | 243 to 245 °C
COc1ccc(-c2[nH]nc3c2C(=O)c2c(NC(=O)C4CCCC4)cccc2-3)cc1 | 267 °C
Cc1ccc2c(c1)C(CCO)N(c1cccc([N+](=O)[O-])c1)N(C)C2=O (centres undefined) | 169 to 170 °C
N#Cc1[nH]c2ccc(Br)cc2c1-c1ccccc1 | 227 to 230 °C
Cc1nnc(-c2ccc3occ(-c4ccc(S(C)=O)cc4Cl)c3c2)o1 (centres undefined) | 175 to 176 °C
Cc1c(S(=O)c2ccc([N+](=O)[O-])cc2)cc(C(C)(C)C)c(O)c1C(=O)O (centres undefined) | 201 to 202 °C
CN1C(=O)CN(N)C(c2ccccc2)c2cc(Cl)ccc21 (centres undefined) | 147 to 148 °C
O=Cc1ccc(OCc2ccccc2)c(OC2CCCC2)c1 | 55 to 56 °C
COc1ccc(C)cc1NC(=O)Nc1ccc(N2CCCN(C(=O)Nc3ccc(OCCO)cc3C(F)(F)F)CC2)cc1 | 118 to 120 °C
CSc1nc2sccc2c(=O)[nH]1 | 232 to 235 °C
CCOCCN(C)c1ccc(-c2ccc3c(c2)C=C(C(=O)Nc2ccc(CN(C)C4CCOCC4)cc2)CCS3(=O)=O)cc1 | 190 to 192 °C
CC(C)(C(=O)O)C(=O)O | 121 to 123 °C
O=C(Nc1cc(OCCCON=Cc2ccc(-c3ccccc3)cc2)ccc1C(=O)O)c1ccc(OC(F)(F)F)cc1 | 188 °C
O=C(O)c1cc(=O)c(Cl)c(-c2ccccc2)o1 | 216 to 218 °C
COC(=O)c1cc(Cl)c(N)c2c1OCC2 | 135 °C

SMILES | melting point
COC(=O)CCCc1cc2nc(Cl)ccc2n1S(=O)(=O)c1ccccc1OC | 115 °C
CC1CN(c2c(F)cc3c(=O)c(C(=O)O)cn(C4CC4)c3c2Cl)CC1N (centres undefined) | 231 to 234 °C
O=S(=O)(Nc1ccc2c(OCc3coc(-c4ccc(Br)cc4)n3)cccc2c1)C(F)(F)F | 205 to 207 °C
CC1c2cc(F)ccc2-c2ccc(F)cc2N1C(=O)c1ccc(O)cc1 (centres undefined) | 138 to 140 °C
O=[N+]([O-])C1CC=CCC1c1ccccc1 (centres undefined) | 114 to 116 °C
O=C1NCSc2ccsc21 | 136 to 138 °C
Cn1c(OC2CCOC2)n[nH]c1=O (centres undefined) | 164 °C
Fc1cccc(-c2nc3cc(Br)ccn3n2)c1 | 186 to 188 °C
Cc1noc2cc3c(cc12)C1(CO3)C(=O)N(Cc2ccc(-c3ccno3)cc2)c2ccccc21 (centres undefined) | 192 to 194 °C
Cc1ccc(C2CCN(Cc3ccc(COc4cccc5c4CN(C4CCC(=O)NC4=O)C5=O)cc3)CC2)cc1 (centres undefined) | 208 to 210 °C
O=C(CCCOc1ccc2nc3[nH]c(=O)[nH]c3cc2c1)NC1CCCCC1 | > 320 °C
CC(C)(COc1ccc(O)c(C(N)=O)c1)[N+](=O)[O-] | 145 to 148 °C
O=C(O)c1cc(Cl)c(F)c(F)c1F | 123 to 124 °C
CN1C(=O)Cc2cc3ccccc3cc2S1(=O)=O | 126 to 127 °C
CC(O)(c1nc2ccccc2[nH]1)C(F)(F)F (centres undefined) | 184 to 187 °C
O=C(Nc1ccc2cc(CN3CCCC3)cnc2c1)c1ccc(-c2ccc(Cl)cc2)cc1 | 217 to 220 °C
O=C(c1ccc(Cl)cc1)c1ccc2c(c1)Cc1ccccc1-2 | 183 °C
Clc1cccc2c1C1=NCCN1C1C(c3ccccc3)CCN21 (centres undefined) | 249 to 250 °C
O=S(=O)(c1ccc2c(c1)OC(c1ccccc1)(c1ccccc1)O2)N1CCCCC1 | 163 to 164 °C
BrCCCCOc1ccc(OCc2ccccc2)cc1 | 70 to 72 °C
O=C(Nc1cscc1S(=O)(=O)c1ccc(Cl)cc1)N[C@@H](Cc1ccc(NC(=O)c2c(Cl)cccc2Cl)cc1)C(=O)O | 202 °C
Cc1cc2oc(=O)c(NC(=O)Nc3ccc(F)cc3F)c(-c3ccccc3C)c2cc1C | 215 to 217 °C
OC(C1=NCCN1)(c1ccccn1)c1cccs1 (centres undefined) | 151 to 152 °C
CCOc1ccc(OCCN2CCN(c3cc(Cl)nnc3Cl)CC2)cc1 | 93 to 95 °C
